Laboratory results as given in PubChem BioAssay (NCI).
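48-hour exposure; five concentrations; linearly interpolated endpoints. Definition used: TGI = concentration required for complete inhibition of growth.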

Columns and labels:
Experiment in all cases: NCI-60 cell line screen, 48 h
K-562 leukemia = test system: K-562 leukemia
SF-268 CNS = test system: SF-268 CNS
SN12C renal = test system: SN12C renal
HT29 colon = test system: HT29 colon
RXF 393 renal = test system: RXF 393 renal
786-0 renal = test system: 786-0 renal
SNB-75 CNS = test system: SNB-75 CNS
M14 melanoma = test system: M14 melanoma
DU-145 prostate = test system: DU-145 prostate
PC-3 prostate = test system: PC-3 prostate
SF-295 CNS = test system: SF-295 CNS
MOLT-4 leukemia = test system: MOLT-4 leukemia
A549 NSCLC = test system: A549 NSCLC
HL-60(TB) leukemia = test system: HL-60(TB) leukemia
IGROV1 ovarian = test system: IGROV1 ovarian
UACC-257 melanoma = test system: UACC-257 melanoma
HOP-62 NSCLC = test system: HOP-62 NSCLC
OVCAR-8 ovarian = test system: OVCAR-8 ovarian
MDA-MB-231 breast = test system: MDA-MB-231 breast
SR leukemia = test system: SR leukemia
CAKI-1 renal = test system: CAKI-1 renal
KM12 colon = test system: KM12 colon
EKVX NSCLC = test system: EKVX NSCLC
SK-MEL-28 melanoma = test system: SK-MEL-28 melanoma
SW-620 colon = test system: SW-620 colon
T-47D breast = test system: T-47D breast
RPMI-8226 leukemia = test system: RPMI-8226 leukemia
NCI-H23 lung = test system: NCI-H23 lung
SK-OV-3 ovarian = test system: SK-OV-3 ovarian
MCF7 breast = test system: MCF7 breast
HCC-2998 colon = test system: HCC-2998 colon
COLO 205 colon = test system: COLO 205 colon
SK-MEL-5 melanoma = test system: SK-MEL-5 melanoma
TK-10 renal = test system: TK-10 renal
CCRF-CEM leukemia = test system: CCRF-CEM leukemia
LOX IMVI melanoma = test system: LOX IMVI melanoma
MALME-3M melanoma = test system: MALME-3M melanoma

Compound: CCOC(=O)c1sc2nc(-c3ccccc3)nn2c1CBr
- TGI (K-562 leukemia): 1.96 µM
- TGI (SF-268 CNS): 4.19 µM
- TGI (SN12C renal): 3.21 µM
- TGI (HT29 colon): 3.77 µM
- TGI (RXF 393 renal): 4.07 µM
- TGI (786-0 renal): 2.95 µM
- TGI (SNB-75 CNS): 3.69 µM
- TGI (M14 melanoma): 2.85 µM
- TGI (DU-145 prostate): > 10 µM
- TGI (PC-3 prostate): 4.16 µM
- TGI (SF-295 CNS): > 10 µM
- TGI (MOLT-4 leukemia): 1.18 µM
- TGI (A549 NSCLC): > 10 µM
- TGI (HL-60(TB) leukemia): 1.34 µM
- TGI (IGROV1 ovarian): > 10 µM
- TGI (UACC-257 melanoma): 3.92 µM
- TGI (HOP-62 NSCLC): > 10 µM
- TGI (OVCAR-8 ovarian): 4.03 µM
- TGI (MDA-MB-231 breast): 3.69 µM
- TGI (SR leukemia): 1.51 µM
- TGI (CAKI-1 renal): 2.83 µM
- TGI (KM12 colon): 4.14 µM
- TGI (EKVX NSCLC): > 10 µM
- TGI (SK-MEL-28 melanoma): 3.41 µM
- TGI (SW-620 colon): 3.88 µM
- TGI (T-47D breast): 5.71 µM
- TGI (RPMI-8226 leukemia): 4.25 µM
- TGI (NCI-H23 lung): 3.78 µM
- TGI (SK-OV-3 ovarian): > 10 µM
- TGI (MCF7 breast): 3.78 µM
- TGI (HCC-2998 colon): > 10 µM
- TGI (COLO 205 colon): 3.73 µM
- TGI (SK-MEL-5 melanoma): 3.49 µM
- TGI (TK-10 renal): 4.47 µM
- TGI (CCRF-CEM leukemia): 0.642 µM
- TGI (LOX IMVI melanoma): 3.17 µM
- TGI (MALME-3M melanoma): 4.94 µM
